The source of these data is PMC10799085, “A miniaturized mode-of-action profiling platform enables high throughput characterization of the molecular and cellular dynamics of EZH2 inhibition” (Scientific Reports, 2024).

“And” between values parts separate entries of the source, which are not always exact repeats. Equal values may be shown once. Read-outs that look alike come from different tables or passages of the source.

Data set [1] has as its system EZH2. Also on record: method as in Konze et al. [41]. The following applies: 40-fold higher enzyme concentration; ref Konze et al. [41]; cited from earlier work.
Data set [2] deals with H3K27me3 mark in MDA-MB-231 cells. The data set is described as follows: High content analysis (HCA) of cellular H3K27me3 mark, washout format. The format is cell-based. The following applies: for AUC (a.u.): HCA H3K27 methylation washout pIC50 AUC over all incubation/washout times; for IC50: Homo sapiens. As for the experimental part: In the low- and high-signal control wells, test compounds were replaced by 10 µM of EZH2 inhibitor (equal to unlabeled probe from ePCA and kPCA) or DMSO, respectively. […] After fixation, the cells were washed with PBS and incubated with 1% BSA blocking solution at RT for 1 h. Blocking solution was discarded, primary monoclonal antibody rabbit Tri-methyl-histone H3K27 (C36B11, Cell signaling) diluted 1:200 in blocking solution was added and incubated overnight at 4 °C. […] Afterwards, cells were washed three times with PBS and incubated at 4 °C until measuring. Fluorescence signals were captured by an Opera Phenix™ High Content Screening (HCA) system (Perkin Elmer) by 10× magnification. […] Microscopy images were initially visualized and preprocessed with MetaXpress High Content Image Acquisition & Analysis Software (Molecular Devices) as previously described. Raw data import, normalization, quality control and fitting curves for IC50 determination of tested compounds were done with Genedata Screener® for high-content screening. Wells with no recognizable signals were masked and the average intensity of the trimethylation signal was normalized to the DMSO control (0%).

A short description of data set [3]: in vitro. The format is in vitro ADME. The following applies: human, Caco-2, pH 7.2, 2 µM, 2 h, 37 °C; for Papp A→B at 2 h, 2 µM: apical to basolateral, read-out: PK Caco-2 Flux Papp A-B (mean); for Papp B→A at 2 h, 2 µM: basolateral to apical, read-out: PK Caco-2 Flux Papp B-A (mean). The method, then: Cells were kept at 37 °C in a humidified 5% CO2 atmosphere. Before the permeation assay was run, the culture medium was replaced by an FCS-free HEPES carbonate transport buffer (pH 7.2). For assessment of monolayer integrity, the transepithelial electrical resistance was measured. Test compounds were pre-dissolved in DMSO and added either to the apical or basolateral compartment at a final concentration of 2 µM. Before and after 2 h incubation at 37 °C, samples were taken from both compartments. Analysis of compound content was conducted after precipitation with methanol by LC/MS/MS analysis. Reference compounds were analyzed in parallel as assay control. Permeability (Papp) was calculated in the apical to basolateral (A → B) and basolateral to apical (B → A) directions. The efflux ratio basolateral (B) to apical (A) was calculated by dividing Papp B–A by Papp A–B.

Data set [4] deals with KARPAS-422 cells. The data set is described as follows: Cellular proliferation assay (AlamarBlue, 144 h). The following applies: Homo sapiens; KARPAS-422 cells, 6-day (144 h), AlamarBlue; read-out: KARPAS (6-day) Anti-proliferation IC50. The format is cell-based. As for the experimental part:
Cell viability was determined by means of the AlamarBlue® reagent (Thermo Fisher Scientific) following instructions from the manufacturer. […] Anti-proliferative IC50s were calculated by fitting the normalized AlamarBlue® fluorescence values to a 4-parameter logistic equation using the Electronic Notebook (ELN) software from IDBS.
(In general: Alamar Blue is a resazurin reagent that responds to reducing activity.)

Data set [5] deals with T1, PRC2/EZH2+/+ (Homo sapiens, UniProt Q15910).
T1 construct: purchased Active Motif
Description: Equilibrium titration of the fluorescent probe, TR-FRET, -/+ H3K27me3 activator peptide. The format is binding. (In general: Time-resolved FRET reads energy transfer from a long-lived donor to a nearby acceptor.)

The target of data set [6] is T2, PRC2/EZH2Y641N (Homo sapiens, UniProt Q15910, Y641N).
T2 construct: Synthetic cDNA encoding N-terminal 6His-tagged full length EZH2^Y641N; 6His (N); made in house; host or cells: Sf9 insect cells (baculovirus co-infection)
The data set is described as above. The format is binding. The following applies: EZH2 Y641N, 25 °C.

The target of data set [7] is T1, PRC2/EZH2+/+. Description: Kinetic titration (association then dissociation) of the fluorescent probe, TR-FRET. It counts as binding. As to conditions: for Kinetic koff / Kinetic kon: listed as fluorescent EZH2 probe.
Data set [8] addresses T2, PRC2/EZH2Y641N. The data set is described as above. It counts as binding. The following applies: EZH2 Y641N, 25 °C; for Kinetic koff / Kinetic kon: listed as fluorescent EZH2 probe.

As usually defined, the Papp A→B is the apparent permeability from the apical to the basolateral side of a cell layer. The Papp B→A is the apparent permeability from the basolateral to the apical side of a cell layer. One may read the koff as a measure of how fast the partners let go of each other. Higher therefore signals fast dissociation. As usually defined, the kon is a measure of how fast the partners come together. Lower therefore signals slow association.

T1 sequence (Q15910 whole entry): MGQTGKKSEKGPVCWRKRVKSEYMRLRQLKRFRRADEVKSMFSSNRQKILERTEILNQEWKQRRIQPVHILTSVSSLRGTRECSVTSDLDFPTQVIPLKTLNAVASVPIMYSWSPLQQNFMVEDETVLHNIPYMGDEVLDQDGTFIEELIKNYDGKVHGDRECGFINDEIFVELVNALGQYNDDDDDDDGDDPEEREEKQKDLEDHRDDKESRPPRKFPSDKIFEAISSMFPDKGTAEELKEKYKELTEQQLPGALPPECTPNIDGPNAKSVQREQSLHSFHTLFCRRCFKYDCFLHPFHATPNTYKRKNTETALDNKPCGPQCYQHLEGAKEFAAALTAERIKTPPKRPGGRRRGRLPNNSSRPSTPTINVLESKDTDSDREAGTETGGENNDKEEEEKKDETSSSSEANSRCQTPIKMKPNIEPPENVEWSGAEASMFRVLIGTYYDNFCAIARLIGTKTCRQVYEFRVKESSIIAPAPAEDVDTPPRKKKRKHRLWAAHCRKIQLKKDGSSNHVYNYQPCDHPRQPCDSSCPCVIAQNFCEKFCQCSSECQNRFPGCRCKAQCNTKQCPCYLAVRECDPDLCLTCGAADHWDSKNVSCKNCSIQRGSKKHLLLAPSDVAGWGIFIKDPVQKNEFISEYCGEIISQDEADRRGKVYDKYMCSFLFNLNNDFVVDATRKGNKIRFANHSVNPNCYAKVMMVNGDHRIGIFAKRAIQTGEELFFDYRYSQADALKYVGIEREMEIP
T1 sequence (O75530 whole entry partner): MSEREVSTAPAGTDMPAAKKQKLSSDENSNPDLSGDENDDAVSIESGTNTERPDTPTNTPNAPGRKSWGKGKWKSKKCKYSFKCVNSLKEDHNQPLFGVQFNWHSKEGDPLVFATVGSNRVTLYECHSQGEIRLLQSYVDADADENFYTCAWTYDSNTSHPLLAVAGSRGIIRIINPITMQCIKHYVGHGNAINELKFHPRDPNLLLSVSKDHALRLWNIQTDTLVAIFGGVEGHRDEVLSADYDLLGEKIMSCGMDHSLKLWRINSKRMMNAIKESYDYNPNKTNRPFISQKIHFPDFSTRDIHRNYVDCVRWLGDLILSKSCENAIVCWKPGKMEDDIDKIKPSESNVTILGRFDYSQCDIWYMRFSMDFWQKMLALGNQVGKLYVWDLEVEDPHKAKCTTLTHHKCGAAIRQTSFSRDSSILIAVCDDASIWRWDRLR
T1 sequence (Q15022 whole entry partner): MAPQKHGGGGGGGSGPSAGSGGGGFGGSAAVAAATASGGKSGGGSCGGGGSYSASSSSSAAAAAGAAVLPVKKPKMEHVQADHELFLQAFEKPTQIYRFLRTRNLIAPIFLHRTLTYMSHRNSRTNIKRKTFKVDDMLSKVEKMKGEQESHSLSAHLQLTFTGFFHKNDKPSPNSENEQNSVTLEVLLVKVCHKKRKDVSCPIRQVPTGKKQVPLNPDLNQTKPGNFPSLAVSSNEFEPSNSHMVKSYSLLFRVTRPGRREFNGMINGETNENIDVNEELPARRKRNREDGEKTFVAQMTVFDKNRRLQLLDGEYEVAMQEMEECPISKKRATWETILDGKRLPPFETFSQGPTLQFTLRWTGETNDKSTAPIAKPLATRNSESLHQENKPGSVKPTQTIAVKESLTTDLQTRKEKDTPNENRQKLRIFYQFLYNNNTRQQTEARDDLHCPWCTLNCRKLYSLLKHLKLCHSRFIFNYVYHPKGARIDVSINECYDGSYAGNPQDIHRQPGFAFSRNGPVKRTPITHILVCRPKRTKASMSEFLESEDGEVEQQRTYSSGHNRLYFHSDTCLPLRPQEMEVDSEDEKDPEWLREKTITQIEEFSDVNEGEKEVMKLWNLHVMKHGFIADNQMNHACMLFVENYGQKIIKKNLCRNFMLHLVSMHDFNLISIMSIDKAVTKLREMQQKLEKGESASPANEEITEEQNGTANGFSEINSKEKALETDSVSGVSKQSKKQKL
T1 sequence (Q09028 whole entry partner): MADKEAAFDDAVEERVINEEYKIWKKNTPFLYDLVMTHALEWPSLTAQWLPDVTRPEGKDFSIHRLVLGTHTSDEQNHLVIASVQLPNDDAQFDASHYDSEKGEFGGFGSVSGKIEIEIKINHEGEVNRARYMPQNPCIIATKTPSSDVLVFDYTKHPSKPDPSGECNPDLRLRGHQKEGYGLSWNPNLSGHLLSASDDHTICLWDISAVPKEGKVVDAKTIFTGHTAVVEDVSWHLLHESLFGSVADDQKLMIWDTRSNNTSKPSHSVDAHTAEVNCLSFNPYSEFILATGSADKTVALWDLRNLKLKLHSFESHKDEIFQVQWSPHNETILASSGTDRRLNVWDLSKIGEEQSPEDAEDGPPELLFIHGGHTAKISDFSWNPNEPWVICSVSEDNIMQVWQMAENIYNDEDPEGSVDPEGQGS
T1 sequence (Q6ZN18 whole entry partner): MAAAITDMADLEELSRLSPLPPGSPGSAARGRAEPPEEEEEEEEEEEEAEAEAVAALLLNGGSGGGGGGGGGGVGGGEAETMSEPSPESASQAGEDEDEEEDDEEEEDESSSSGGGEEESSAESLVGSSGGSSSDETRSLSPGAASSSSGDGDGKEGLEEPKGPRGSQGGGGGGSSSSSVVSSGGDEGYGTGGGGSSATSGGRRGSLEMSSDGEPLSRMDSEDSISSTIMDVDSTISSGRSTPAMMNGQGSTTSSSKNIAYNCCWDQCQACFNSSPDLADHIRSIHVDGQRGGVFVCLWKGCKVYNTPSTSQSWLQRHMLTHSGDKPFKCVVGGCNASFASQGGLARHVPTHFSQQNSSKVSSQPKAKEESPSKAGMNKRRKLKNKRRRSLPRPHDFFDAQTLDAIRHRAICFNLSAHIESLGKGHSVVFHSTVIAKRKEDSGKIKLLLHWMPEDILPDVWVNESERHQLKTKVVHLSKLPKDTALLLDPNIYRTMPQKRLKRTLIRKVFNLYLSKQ
T2 sequence (Q15910 whole entry Y641N): as the sequence (Q15910 whole entry) above, with Y641N counted along it
T2 sequence (O75530 whole entry partner): as the sequence (O75530 whole entry partner) above
T2 sequence (Q15022 whole entry partner): as the sequence (Q15022 whole entry partner) above
T2 sequence (Q09028 whole entry partner): as the sequence (Q09028 whole entry partner) above
T2 sequence (Q6ZN18 whole entry partner): as the sequence (Q6ZN18 whole entry partner) above

In the case of UNC2239, the IC50 in data set [1] is 20 nM.

Regarding `Cc1cc(C)c(CNC(=O)c2cc(Cl)c3c(c2C)O[C@@](C)([C@H]2CC[C@H](N(C)C)CC2)O3)c(=O)[nH]1` [Compound 31, DS-3201], the “AUC (a.u.)” value in data set [2] stood at 173.5 a.u. The IC50 in data set [2] (MDA-MB-231, read-out: Mean IC50 (M), H3K27 methylation HCA, incubation time 0.5 h, washout time 71.5 h) was 6.9e-07 M; in data set [2] (MDA-MB-231, read-out: Mean IC50 (M), H3K27 methylation HCA, incubation time 1 h, washout time 71 h) it was 2.3e-07 M; in data set [2] (MDA-MB-231, read-out: Mean IC50 (M), H3K27 methylation HCA, incubation time 24 h, washout time 48 h) it was 1.2e-07 M; in data set [2] (MDA-MB-231, read-out: Mean IC50 (M), H3K27 methylation HCA, incubation time 48 h, washout time 24 h), 3.9e-08 M; in data set [2] (MDA-MB-231, read-out: Mean IC50 (M), H3K27 methylation HCA, incubation time 72 h, washout time 0 h) it was 3.4e-09 M. Also, in data set [3], the Papp A→B at 2 h, 2 µM stood at 0.599 ×10⁻⁶ cm/s. The apparent permeability from basolateral to apical (Papp B→A) at 2 h, 2 µM in data set [3] was found to be 20.9 ×10⁻⁶ cm/s.

Regarding `CCN(c1cc(-c2ccc(CN3CCOCC3)cc2)cc(C(=O)NCc2c(C)cc(C)[nH]c2=O)c1C)C1CCOCC1` [Compound 2, Tazemetostat], the “AUC (a.u.)” value in data set [2] is on record as 79.9 a.u. In addition, in data set [3], the apparent permeability from apical to basolateral (Papp A→B) at 2 h, 2 µM worked out at 1.18 ×10⁻⁶ cm/s and the Papp B→A at 2 h, 2 µM was 28.1 ×10⁻⁶ cm/s.

With `CCS(=O)(=O)N1CCC([C@@H](C)n2c(C)c(C(=O)NCc3c(OC)cc(C)[nH]c3=O)c3ccccc32)CC1` [Compound 10, CPI-169], the “AUC (a.u.)” value in data set [2] is reported as 39.5 a.u. Moreover, the IC50 is more than 1.2e-05 M in data set [2] (MDA-MB-231, H3K27 methylation HCA, incubation time 0.5 h, washout time 71.5 h, read-out: Mean IC50); more than 1.2e-05 M in data set [2] (MDA-MB-231, H3K27 methylation HCA, incubation time 2 h, washout time 70 h, read-out: Mean IC50); more than 1.2e-05 M in data set [2] (MDA-MB-231, H3K27 methylation HCA, incubation time 4 h, washout time 68 h, read-out: Mean IC50); more than 1.2e-05 M in data set [2] (MDA-MB-231, H3K27 methylation HCA, incubation time 24 h, washout time 48 h, read-out: Mean IC50); 3.1e-06 M in data set [2] (MDA-MB-231, H3K27 methylation HCA, incubation time 48 h, washout time 24 h, read-out: Mean IC50); 860 nM in data set [4]. The Papp A→B at 2 h, 2 µM in data set [3] is 0.041 ×10⁻⁶ cm/s. Besides, in data set [3], the Papp B→A at 2 h, 2 µM was 14.7 ×10⁻⁶ cm/s.

As to `CCCc1cc(C)[nH]c(=O)c1CNC(=O)c1cc(-c2ccc(N3CCN(CCCCCCNC(=O)CCCCCN4\C(=C/C=C/C=C/C5=[N+](CCOC)c6ccc(S(=O)(=O)O)cc6C5(C)C)C(C)(C)c5cc(S(=O)(=O)O)ccc54)CC3)nc2)cc2c1cnn2C(C)C.O=C(O)C(F)(F)F.O=C([O-])C(F)(F)F` [fluorescent probe, 2-[(1E,3E)-5-[(2Z)-3,3-dimethyl-1-{5-[(6-{4-[5-(4-{[(6-methyl-2-oxo-4-propyl-1,2-dihydropyridin-3-yl)methyl]carbamoyl}-1-(propan-2-yl)-1H-indazol-6-yl)pyridin-2-yl]piperazin-1-yl}hexyl)carbamoyl]pentyl}-5-sulfo-2,3-dihydro-1H-indol-2-ylidene]penta-1,3-dien-1-yl]-1-(2-methoxyethyl)-3,3-dimethyl-5-sulfo-3H-indol-1-ium trifluoroacetic acid trifluoroacetate], the Kd was 0.39 nM and 0.393 nM in data set [5] (EZH2+/+, with H3K27me3 (AP), 25 °C, read-out: Equilibrium KD); 1.13 nM in data set [5] (EZH2+/+, without H3K27me3 (AP), 25 °C, read-out: Equilibrium KD); 1.1 ± 0.2 nM in data set [5] (wild type EZH2, absence of H3K27me3 peptide, read-out: affinity in equilibrium conditions); 0.4 ± 0.01 nM in data set [5] (wild type EZH2, saturating concentrations of H3K27me3 peptide, read-out: affinity in equilibrium conditions); 2.7 nM and 2.72 nM in data set [6] (with H3K27me3 (AP)); 9.56 nM in data set [6] (without H3K27me3 (AP)). Besides, the Kd in data set [7] (with AP, 25 °C) was 0.65 nM and 0.653 nM; in data set [7] (without AP, 5 °C) it was 1.16 nM; in data set [7] (without AP, 15 °C), 0.53 nM; in data set [7] (without AP, 25 °C), 1.4 nM and 1.43 nM; in data set [7] (without AP, 30 °C), 5.98 nM; in data set [7] (without AP, 37 °C) it was 3.71 nM. The Kd in data set [8] (with AP) is 3.8 nM and 3.76 nM; in data set [8] (without AP), 27 nM. The koff in data set [7] (with AP, 25 °C) came out at 0.00073 s⁻¹; in data set [7] (without AP, 5 °C) it was 0.000177 s⁻¹; in data set [7] (without AP, 15 °C), 0.000505 s⁻¹; in data set [7] (without AP, 25 °C) it was 0.0027 s⁻¹; in data set [7] (without AP, 30 °C) it was 0.0051 s⁻¹; in data set [7] (without AP, 37 °C), 0.00823 s⁻¹. For the same molecule, the figures for the koff in data set [8] (with AP) and in data set [8] (without AP) were 0.0035 s⁻¹ and 0.018 s⁻¹, respectively. The kon turned out to be 1.2e+06 M⁻¹ s⁻¹ in data set [7] (with AP, 25 °C); 152000 M⁻¹ s⁻¹ in data set [7] (without AP, 5 °C); 953000 M⁻¹ s⁻¹ in data set [7] (without AP, 15 °C); 2e+06 M⁻¹ s⁻¹ in data set [7] (without AP, 25 °C); 853000 M⁻¹ s⁻¹ in data set [7] (without AP, 30 °C); 2.22e+06 M⁻¹ s⁻¹ in data set [7] (without AP, 37 °C). For the same molecule, the kon was found to be 1e+06 M⁻¹ s⁻¹ in data set [8] (with AP) and 680000 M⁻¹ s⁻¹ in data set [8] (without AP). The Kinetic koff came out at 0.000728 s⁻¹ in data set [7] (with AP, 25 °C); 0.00273 s⁻¹ in data set [7] (without AP, 25 °C); 0.00345 s⁻¹ in data set [8] (with AP); 0.0177 s⁻¹ in data set [8] (without AP). Besides, the Kinetic kon in data set [7] (with AP, 25 °C) was determined as 1.16e+06 M⁻¹ s⁻¹; in data set [7] (without AP, 25 °C), 1.96e+06 M⁻¹ s⁻¹; in data set [8] (with AP) it was 1.01e+06 M⁻¹ s⁻¹; in data set [8] (without AP) it was 679000 M⁻¹ s⁻¹.

Consider `CCN(c1cc(-c2ccc(CN3CCOCC3)cc2)cc(C(=O)NCc2c(C)cc(C)[nH]c2=O)c1C)C1CCOCC1` [Compound 3, Tazemetostat], for which the “AUC (a.u.)” value in data set [2] was determined as 93.5 a.u.
